# Measurements published in ChEMBL document CHEMBL2146458, “Tanshinones as selective and slow-binding inhibitors for SARS-CoV cysteine proteases” (Bioorg Med Chem, 2012).
# Calls of active or inactive are those of the source. The rule behind the calls is not given here.
# Target: Replicase polyprotein 1a (Severe acute respiratory syndrome-related coronavirus) (UniProt P0C6U8)
# Settings: not given
row,Structure (SMILES),inhibition
1,C[C@H]1COC2=C1C(=O)C(=O)c1c2ccc2c1CCCC2(C)C [CRYPTOTANSHINONE],Active
2,Cc1cccc2c3c(ccc12)C1=C(C(=O)C3=O)[C@@H](C)CO1 [DIHYDROTANSHINONE I],Active
3,COC(=O)[C@@]1(C)CCCc2c1ccc1c2C(=O)C(=O)c2c(C)coc2-1 [METHYL TANSHINONATE],Active
4,CC(C)C1=Cc2ccc3c(c2C(=O)C1=O)CCCC3(C)C [MILTIRONE],Active

# Target: T1, Papain (Carica papaya, UniProt P00784)
# T1 sequence (P00784 whole entry): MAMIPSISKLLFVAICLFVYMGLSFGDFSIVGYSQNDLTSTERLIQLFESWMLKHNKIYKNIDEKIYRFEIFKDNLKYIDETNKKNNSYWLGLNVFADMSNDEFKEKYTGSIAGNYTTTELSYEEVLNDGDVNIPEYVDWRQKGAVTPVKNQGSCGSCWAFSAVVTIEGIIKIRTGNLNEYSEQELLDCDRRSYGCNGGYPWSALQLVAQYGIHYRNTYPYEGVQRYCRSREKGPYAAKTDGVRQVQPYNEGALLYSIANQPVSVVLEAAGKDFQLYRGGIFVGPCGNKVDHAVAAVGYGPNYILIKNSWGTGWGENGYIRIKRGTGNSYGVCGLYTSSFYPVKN
# Assay: Inhibition of papaya papain using N-alpha-benzoyl-L-arginine-pnitroanilide as substrate after 5 mins
# Settings: not given
row,Structure (SMILES),IC50 [µM]
1,C[C@H]1COC2=C1C(=O)C(=O)c1c2ccc2c1CCCC2(C)C [CRYPTOTANSHINONE],89.8
2,CC(C)C1=Cc2ccc3c(c2C(=O)C1=O)CCCC3(C)C [MILTIRONE],88

# Target: Replicase polyprotein 1a (Severe acute respiratory syndrome-related coronavirus) (UniProt P0C6U8)
# Settings: not given
# Remark: another data set of the same source
row,Structure (SMILES),inhibition
1,Cc1cccc2c3c(ccc12)C1=C(C(=O)C3=O)[C@@H](C)CO1 [DIHYDROTANSHINONE I],Active
2,COC(=O)[C@@]1(C)CCCc2c1ccc1c2C(=O)C(=O)c2c(C)coc2-1 [METHYL TANSHINONATE],Active
3,CC(C)C1=Cc2ccc3c(c2C(=O)C1=O)CCCC3(C)C [MILTIRONE],Active

# Target: Replicase polyprotein 1a (Severe acute respiratory syndrome-related coronavirus) (UniProt P0C6U8)
# Settings: not given
# Remark: another data set of the same source
row,Structure (SMILES),inhibition
1,Cc1cccc2c3c(ccc12)C1=C(C(=O)C3=O)[C@@H](C)CO1 [DIHYDROTANSHINONE I],Dose-dependent effect
2,COC(=O)[C@@]1(C)CCCc2c1ccc1c2C(=O)C(=O)c2c(C)coc2-1 [METHYL TANSHINONATE],Dose-dependent effect
3,CC(C)C1=Cc2ccc3c(c2C(=O)C1=O)CCCC3(C)C [MILTIRONE],Dose-dependent effect

# Target: T2, Replicase polyprotein 1a (Severe acute respiratory syndrome-related coronavirus, UniProt P0C6U8)
# Settings: not given
row,Structure (SMILES),IC50 [µM]
1,C[C@H]1COC2=C1C(=O)C(=O)c1c2ccc2c1CCCC2(C)C [CRYPTOTANSHINONE],227
2,Cc1cccc2c3c(ccc12)C1=C(C(=O)C3=O)[C@@H](C)CO1 [DIHYDROTANSHINONE I],14.4
3,COC(=O)[C@@]1(C)CCCc2c1ccc1c2C(=O)C(=O)c2c(C)coc2-1 [METHYL TANSHINONATE],21.1
4,CC(C)C1=Cc2ccc3c(c2C(=O)C1=O)CCCC3(C)C [MILTIRONE],21.1

# Target: Replicase polyprotein 1a (Severe acute respiratory syndrome-related coronavirus) (UniProt P0C6U8)
# Settings: TDE = time-dependent effect
row,Structure (SMILES),inhibition
1,C[C@H]1COC2=C1C(=O)C(=O)c1c2ccc2c1CCCC2(C)C [CRYPTOTANSHINONE],tde
2,Cc1cccc2c3c(ccc12)C1=C(C(=O)C3=O)[C@@H](C)CO1 [DIHYDROTANSHINONE I],tde
3,COC(=O)[C@@]1(C)CCCc2c1ccc1c2C(=O)C(=O)c2c(C)coc2-1 [METHYL TANSHINONATE],tde
4,CC(C)C1=Cc2ccc3c(c2C(=O)C1=O)CCCC3(C)C [MILTIRONE],tde

# Target: Protease (Human immunodeficiency virus 1, UniProt Q9YQ12)
# Sequence (Q9YQ12 whole entry): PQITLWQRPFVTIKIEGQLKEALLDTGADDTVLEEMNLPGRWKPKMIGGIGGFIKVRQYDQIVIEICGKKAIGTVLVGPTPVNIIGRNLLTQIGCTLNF
# Assay: Inhibition of Human immunodeficiency virus 1 protease preincubated for 10 mins by FRET assay
# Settings: not given
row,Structure (SMILES),IC50 [µM]
1,C[C@H]1COC2=C1C(=O)C(=O)c1c2ccc2c1CCCC2(C)C [CRYPTOTANSHINONE],69.6
2,Cc1cccc2c3c(ccc12)C1=C(C(=O)C3=O)[C@@H](C)CO1 [DIHYDROTANSHINONE I],50.6
3,COC(=O)[C@@]1(C)CCCc2c1ccc1c2C(=O)C(=O)c2c(C)coc2-1 [METHYL TANSHINONATE],103
4,CC(C)C1=Cc2ccc3c(c2C(=O)C1=O)CCCC3(C)C [MILTIRONE],148

# System: not listed separately
# Assay: Inhibition of chymotrypsin using N-benzoyl-L-tyrosine ethyl ester as substrate assessed as benzoyl-tyrosine production at 200 uM measured every 10 seconds for 6 mins
# Settings: not given
row,Structure (SMILES),inhibition
1,Cc1cccc2c3c(ccc12)C1=C(C(=O)C3=O)[C@@H](C)CO1 [DIHYDROTANSHINONE I],inactive

# Target: Replicase polyprotein 1a (Severe acute respiratory syndrome-related coronavirus) (UniProt P0C6U8)
# Settings: not given
# Remark: another data set of the same source
row,Structure (SMILES),inhibition
1,C[C@H]1COC2=C1C(=O)C(=O)c1c2ccc2c1CCCC2(C)C [CRYPTOTANSHINONE],Dose-dependent effect

# Target: T3, Papain (Carica papaya) (UniProt P00784)
# T3 sequence (whole entry): T1 sequence (P00784 whole entry)
# Assay: Inhibition of papaya papain using N-alpha-benzoyl-L-arginine-pnitroanilide as substrate at 200 uM after 5 mins
# Settings: not given
row,Structure (SMILES),inhibition
1,Cc1cccc2c3c(ccc12)C1=C(C(=O)C3=O)[C@@H](C)CO1 [DIHYDROTANSHINONE I],inactive
2,COC(=O)[C@@]1(C)CCCc2c1ccc1c2C(=O)C(=O)c2c(C)coc2-1 [METHYL TANSHINONATE],inactive

# Target: Replicase polyprotein 1a (Severe acute respiratory syndrome-related coronavirus) (UniProt P0C6U8)
# Settings: not given
# Remark: another data set of the same source
row,Structure (SMILES),inhibition
1,C[C@H]1COC2=C1C(=O)C(=O)c1c2ccc2c1CCCC2(C)C [CRYPTOTANSHINONE],Active
2,Cc1cccc2c3c(ccc12)C1=C(C(=O)C3=O)[C@@H](C)CO1 [DIHYDROTANSHINONE I],Active
3,COC(=O)[C@@]1(C)CCCc2c1ccc1c2C(=O)C(=O)c2c(C)coc2-1 [METHYL TANSHINONATE],Active

# Target: Replicase polyprotein 1a (Severe acute respiratory syndrome-related coronavirus) (UniProt P0C6U8)
# Settings: 200 uM
row,Structure (SMILES),inhibition
1,COC(=O)[C@@]1(C)CCCc2c1ccc1c2C(=O)C(=O)c2c(C)coc2-1 [METHYL TANSHINONATE],inactive

# Target: T2, Replicase polyprotein 1a
# Settings: not given
# Remark: another data set of the same source
row,Structure (SMILES),IC50 [µM]
1,C[C@H]1COC2=C1C(=O)C(=O)c1c2ccc2c1CCCC2(C)C [CRYPTOTANSHINONE],10.1
2,Cc1cccc2c3c(ccc12)C1=C(C(=O)C3=O)[C@@H](C)CO1 [DIHYDROTANSHINONE I],10.7
3,COC(=O)[C@@]1(C)CCCc2c1ccc1c2C(=O)C(=O)c2c(C)coc2-1 [METHYL TANSHINONATE],10.6
4,CC(C)C1=Cc2ccc3c(c2C(=O)C1=O)CCCC3(C)C [MILTIRONE],78.9

# System: not listed separately
# Assay: Inhibition of chymotrypsin using N-benzoyl-L-tyrosine ethyl ester as substrate assessed as benzoyl-tyrosine production measured every 10 seconds for 6 mins
# Settings: not given
row,Structure (SMILES),IC50 [µM]
1,C[C@H]1COC2=C1C(=O)C(=O)c1c2ccc2c1CCCC2(C)C [CRYPTOTANSHINONE],120
2,COC(=O)[C@@]1(C)CCCc2c1ccc1c2C(=O)C(=O)c2c(C)coc2-1 [METHYL TANSHINONATE],124
3,CC(C)C1=Cc2ccc3c(c2C(=O)C1=O)CCCC3(C)C [MILTIRONE],139

# Target: Replicase polyprotein 1a (Severe acute respiratory syndrome-related coronavirus) (UniProt P0C6U8)
# Settings: 1 to 100 uM
row,Structure (SMILES),inhibition
1,Cc1cccc2c3c(ccc12)C1=C(C(=O)C3=O)[C@@H](C)CO1 [DIHYDROTANSHINONE I],inactive
2,COC(=O)[C@@]1(C)CCCc2c1ccc1c2C(=O)C(=O)c2c(C)coc2-1 [METHYL TANSHINONATE],inactive
3,CC(C)C1=Cc2ccc3c(c2C(=O)C1=O)CCCC3(C)C [MILTIRONE],inactive

# Target: T2, Replicase polyprotein 1a
# Settings: not given
# Remark: another data set of the same source
row,Structure (SMILES),IC50 [µM]
1,C[C@H]1COC2=C1C(=O)C(=O)c1c2ccc2c1CCCC2(C)C [CRYPTOTANSHINONE],87.6
2,Cc1cccc2c3c(ccc12)C1=C(C(=O)C3=O)[C@@H](C)CO1 [DIHYDROTANSHINONE I],1.2
3,CC(C)C1=Cc2ccc3c(c2C(=O)C1=O)CCCC3(C)C [MILTIRONE],60.2

# Target: Replicase polyprotein 1a (Severe acute respiratory syndrome-related coronavirus) (UniProt P0C6U8)
# Settings: not given
# Remark: another data set of the same source
row,Structure (SMILES),inhibition
1,CC(C)C1=Cc2ccc3c(c2C(=O)C1=O)CCCC3(C)C [MILTIRONE],Active

# Target: T2, Replicase polyprotein 1a
# Settings: read-out: Ki(app)
row,Structure (SMILES),Ki [µM]
1,C[C@H]1COC2=C1C(=O)C(=O)c1c2ccc2c1CCCC2(C)C [CRYPTOTANSHINONE],9
2,Cc1cccc2c3c(ccc12)C1=C(C(=O)C3=O)[C@@H](C)CO1 [DIHYDROTANSHINONE I],11.2
3,COC(=O)[C@@]1(C)CCCc2c1ccc1c2C(=O)C(=O)c2c(C)coc2-1 [METHYL TANSHINONATE],9.7
4,CC(C)C1=Cc2ccc3c(c2C(=O)C1=O)CCCC3(C)C [MILTIRONE],21.5

# Target: T2, Replicase polyprotein 1a
# Settings: not given
# Remark: another data set of the same source
row,Structure (SMILES),IC50 [µM]
1,C[C@H]1COC2=C1C(=O)C(=O)c1c2ccc2c1CCCC2(C)C [CRYPTOTANSHINONE],0.8
2,Cc1cccc2c3c(ccc12)C1=C(C(=O)C3=O)[C@@H](C)CO1 [DIHYDROTANSHINONE I],4.9
3,COC(=O)[C@@]1(C)CCCc2c1ccc1c2C(=O)C(=O)c2c(C)coc2-1 [METHYL TANSHINONATE],9.2
4,CC(C)C1=Cc2ccc3c(c2C(=O)C1=O)CCCC3(C)C [MILTIRONE],30
